Laboratory results reported in ChEMBL document CHEMBL1154382, “Preliminary SAR analysis of novel antiproliferative N(6),5'-bis-ureidoadenosine derivatives” (2009).

Experiments:
Format in all cases: functional
Conditions in all cases: values are per cent of control
CCRF-CEM = assay: Antiproliferative activity against human CCRF-CEM cells at 10 uM assessed as cell growth inhibition relative to control
HL-60(TB) = assay: Antiproliferative activity against human HL-60(TB) cells at 10 uM assessed as cell growth inhibition relative to control
K562 = assay: Antiproliferative activity against human K562 cells at 10 uM assessed as cell growth inhibition relative to control
MOLT-4 = assay: Antiproliferative activity against human MOLT4 cells at 10 uM assessed as cell growth inhibition relative to control
[1] = Antiproliferative activity against human […] cells at 10 uM assessed as cell growth inhibition relative to control
A549 = assay: Antiproliferative activity against human A549 cells at 10 uM assessed as cell growth inhibition relative to control
EKVX = assay: Antiproliferative activity against human EKVX cells at 10 uM assessed as cell growth inhibition relative to control
PC-3 = assay: Antiproliferative activity against human PC3 cells at 10 uM assessed as cell growth inhibition relative to control
HOP-62 = assay: Antiproliferative activity against human HOP62 cells at 10 uM assessed as cell growth inhibition relative to control
HOP-92 = assay: Antiproliferative activity against human HOP92 cells at 10 uM assessed as cell growth inhibition relative to control
NCI-H226 = assay: Antiproliferative activity against human NCI-H226 cells at 10 uM assessed as cell growth inhibition relative to control
NCI-H23 = assay: Antiproliferative activity against human NCI-H23 cells at 10 uM assessed as cell growth inhibition relative to control
NCI-H322M = assay: Antiproliferative activity against human NCI-H322M cells at 10 uM assessed as cell growth inhibition relative to control
NCI-H460 = assay: Antiproliferative activity against human NCI-H460 cells at 10 uM assessed as cell growth inhibition relative to control
NCI-H522 = assay: Antiproliferative activity against human NCI-H522 cells at 10 uM assessed as cell growth inhibition relative to control
COLO 205 = assay: Antiproliferative activity against human COLO205 cells at 10 uM assessed as cell growth inhibition relative to control
HCC 2998 = assay: Antiproliferative activity against human HCC2998 cells at 10 uM assessed as cell growth inhibition relative to control
HCT-116 = assay: Antiproliferative activity against human HCT116 cells at 10 uM assessed as cell growth inhibition relative to control
HCT-15 = assay: Antiproliferative activity against human HCT15 cells at 10 uM assessed as cell growth inhibition relative to control
HT-29 = assay: Antiproliferative activity against human HT-29 cells at 10 uM assessed as cell growth inhibition relative to control
KM12 = assay: Antiproliferative activity against human KM12 cells at 10 uM assessed as cell growth inhibition relative to control
SW-620 = assay: Antiproliferative activity against human SW620 cells at 10 uM assessed as cell growth inhibition relative to control
LOX IMVI = assay: Antiproliferative activity against human LOXIMVI cells at 10 uM assessed as cell growth inhibition relative to control
Malme-3M = assay: Antiproliferative activity against human MALME-3M cells at 10 uM assessed as cell growth inhibition relative to control
M14 = assay: Antiproliferative activity against human M14 cells at 10 uM assessed as cell growth inhibition relative to control
SK-MEL-2 = assay: Antiproliferative activity against human SK-MEL-2 cells at 10 uM assessed as cell growth inhibition relative to control
SK-MEL-28 = assay: Antiproliferative activity against human SK-MEL-28 cells at 10 uM assessed as cell growth inhibition relative to control
SK-MEL-5 = assay: Antiproliferative activity against human SK-MEL-5 cells at 10 uM assessed as cell growth inhibition relative to control
UACC-257 = assay: Antiproliferative activity against human UACC257 cells at 10 uM assessed as cell growth inhibition relative to control
UACC-62 = assay: Antiproliferative activity against human UACC62 cells at 10 uM assessed as cell growth inhibition relative to control
SF-268 = assay: Antiproliferative activity against human SF268 cells at 10 uM assessed as cell growth inhibition relative to control
SF-295 = assay: Antiproliferative activity against human SF295 cells at 10 uM assessed as cell growth inhibition relative to control
SF-539 = assay: Antiproliferative activity against human SF539 cells at 10 uM assessed as cell growth inhibition relative to control
SNB-19 = assay: Antiproliferative activity against human SNB19 cells at 10 uM assessed as cell growth inhibition relative to control
SNB-75 = assay: Antiproliferative activity against human SNB75 cells at 10 uM assessed as cell growth inhibition relative to control
U-251 = assay: Antiproliferative activity against human U251 cells at 10 uM assessed as cell growth inhibition relative to control
IGROV-1 = assay: Antiproliferative activity against human IGROV1 cells at 10 uM assessed as cell growth inhibition relative to control
OVCAR-3 = assay: Antiproliferative activity against human OVCAR-3 cells at 10 uM assessed as cell growth inhibition relative to control
OVCAR-4 = assay: Antiproliferative activity against human OVCAR4 cells at 10 uM assessed as cell growth inhibition relative to control
OVCAR-5 = assay: Antiproliferative activity against human OVCAR5 cells at 10 uM assessed as cell growth inhibition relative to control
OVCAR-8 = assay: Antiproliferative activity against human OVCAR8 cells at 10 uM assessed as cell growth inhibition relative to control
SK-OV-3 = assay: Antiproliferative activity against human SKOV3 cells at 10 uM assessed as cell growth inhibition relative to control
786-0 = assay: Antiproliferative activity against human 786-0 cells at 10 uM assessed as cell growth inhibition relative to control
ACHN = assay: Antiproliferative activity against human ACHN cells at 10 uM assessed as cell growth inhibition relative to control
CAKI-1 = assay: Antiproliferative activity against human Caki1 cells at 10 uM assessed as cell growth inhibition relative to control
RXF 393 = assay: Antiproliferative activity against human RXF393 cells at 10 uM assessed as cell growth inhibition relative to control
SN12C = assay: Antiproliferative activity against human SN12C cells at 10 uM assessed as cell growth inhibition relative to control
TK-10 = assay: Antiproliferative activity against human TK10 cells at 10 uM assessed as cell growth inhibition relative to control
UO-31 = assay: Antiproliferative activity against human UO31 cells at 10 uM assessed as cell growth inhibition relative to control
BT-549 = assay: Antiproliferative activity against human BT549 cells at 10 uM assessed as cell growth inhibition relative to control
[2] = Antiproliferative activity against human Hs 578T cells at 10 uM assessed as cell growth inhibition relative to control
MCF7 = assay: Antiproliferative activity against human MCF7 cells at 10 uM assessed as cell growth inhibition relative to control
MDA-MB-231 = assay: Antiproliferative activity against human MDA-MB-231 cells at 10 uM assessed as cell growth inhibition relative to control
MDA-MB-468 = assay: Antiproliferative activity against human MDA-MB-468 cells at 10 uM assessed as cell growth inhibition relative to control
T47D = assay: Antiproliferative activity against human T47D cells at 10 uM assessed as cell growth inhibition relative to control
DU-145 = assay: Antiproliferative activity against human DU145 cells at 10 uM assessed as cell growth inhibition relative to control

Compound `CNC(=O)NC[C@H]1O[C@@H](n2cnc3c(NC(=O)Nc4ccccc4)ncnc32)[C@H](O[Si](C)(C)C(C)(C)C)[C@@H]1O[Si](C)(C)C(C)(C)C` has a growth, % of control at 10 µM (CCRF-CEM) of 43%, a growth, % of control at 10 µM (HL-60(TB)) of 24% and a growth, % of control at 10 µM (K562) of 34%. For the same compound, the growth, % of control at 10 µM (MOLT-4) was 24%, the growth, % of control at 10 µM [1] was 20% and the growth, % of control at 10 µM (A549) was 23%. It also gave a growth, % of control at 10 µM (EKVX) of 23%, a growth, % of control at 10 µM (PC-3) of 8% and a growth, % of control at 10 µM (HOP-62) of 62%. For the same compound, the growth, % of control at 10 µM (HOP-92) was -3%, the growth, % of control at 10 µM (NCI-H226) was 49% and the growth, % of control at 10 µM (NCI-H23) was 36%. It also gave a growth, % of control at 10 µM (NCI-H322M) of 87%, a growth, % of control at 10 µM (NCI-H460) of -7% and a growth, % of control at 10 µM (NCI-H522) of 46%. The growth, % of control at 10 µM (COLO 205) was -100%, the growth, % of control at 10 µM (HCC 2998) was -1% and the growth, % of control at 10 µM (HCT-116) was 0%. It also gave a growth, % of control at 10 µM (HCT-15) of 21%, a growth, % of control at 10 µM (HT-29) of -68% and a growth, % of control at 10 µM (KM12) of -4%. It also gave a growth, % of control at 10 µM (SW-620) of 36%, a growth, % of control at 10 µM (LOX IMVI) of 13% and a growth, % of control at 10 µM (Malme-3M) of 49%. For the same compound, the growth, % of control at 10 µM (M14) was 33%, the growth, % of control at 10 µM (SK-MEL-2) was 57% and the growth, % of control at 10 µM (SK-MEL-28) was 60%. The growth, % of control at 10 µM (SK-MEL-5) was 48%, the growth, % of control at 10 µM (UACC-257) was 43% and the growth, % of control at 10 µM (UACC-62) was 42%. It also gave a growth, % of control at 10 µM (SF-268) of 36%, a growth, % of control at 10 µM (SF-295) of 45% and a growth, % of control at 10 µM (SF-539) of 33%. For the same compound, the growth, % of control at 10 µM (SNB-19) was 76%, the growth, % of control at 10 µM (SNB-75) was 46% and the growth, % of control at 10 µM (U-251) was 17%. It also gave a growth, % of control at 10 µM (IGROV-1) of 53%, a growth, % of control at 10 µM (OVCAR-3) of -29% and a growth, % of control at 10 µM (OVCAR-4) of 30%. It also gave a growth, % of control at 10 µM (OVCAR-5) of 69%, a growth, % of control at 10 µM (OVCAR-8) of 33% and a growth, % of control at 10 µM (SK-OV-3) of 78%. For the same compound, the growth, % of control at 10 µM (786-0) was 17%, the growth, % of control at 10 µM (ACHN) was 21% and the growth, % of control at 10 µM (CAKI-1) was 60%. For the same compound, the growth, % of control at 10 µM (RXF 393) was -37%, the growth, % of control at 10 µM (SN12C) was -79% and the growth, % of control at 10 µM (TK-10) was 34%. The growth, % of control at 10 µM (UO-31) was 48%, the growth, % of control at 10 µM (BT-549) was 40% and the growth, % of control at 10 µM [2] was 61%. It also gave a growth, % of control at 10 µM (MCF7) of 0%, a growth, % of control at 10 µM (MDA-MB-231) of 38% and a growth, % of control at 10 µM (MDA-MB-468) of 36%. The growth, % of control at 10 µM (T47D) was 14% and the growth, % of control at 10 µM (DU-145) was 52%.
